One block for each compound: values may come before it.
Assays:
[1] = system: bacterial (S. aureus) biofilm and fungal biofilm (C. albicans); test: Biofilm inhibition assay, bacterial and fungal taken together; assay type: cell-based; conditions: for Neutral (square: Inhibition Biofilm Assay): symbol marks the assay
[2] = system: bacterial (S. aureus) biofilm and fungal biofilm (C. albicans); test: Biofilm disruption assay, bacterial and fungal taken together; assay type: cell-based
Procedure: (§1) Two types of biofilm assays were performed: an inhibition assay and a disruption assay. The inhibition assay assesses the compound's ability to prevent biofilm development, while the disruption assay assesses the compound's ability to break up an existing mature biofilm.
(§2) All bacterial biofilm solutions were prepared in Tryptic Soy Broth (TSB), supplemented with 1% glucose (henceforth referred to as TSB-G). All subsequent procedures were performed in a manner that maintained sterility. A solution of each amino acid or an amino acid derivative to be tested was prepared in weight to volume concentrations ranging from 0.1-5.0%. Amino acids and amino acid derivatives were also tested in combinations. Compound solutions were homogenized with gentle agitation in the dark (4° C., 24 hours) before use.
(§3) 32 Amino acids and 2 amino acid derivatives of the amino acid serine that occur freely in human blood were tested. […] 31 of the 32 amino acids that were tested were the L-Isomers. Glycine has no stereoisomers. The 2 amino acid derivatives, ethanolamine and phosphoethanolamine were also tested. All biofilm assays were performed using 384-well non-tissue culture-treated polystyrene plates. The fungal species tested are as follows: Candida albicans, Candida guilliermondii, Candida parapsilosis, Candida glabrata, Candida tropicalis and Candida dubliniensis. The bacterial species tested are as follows: Staphylococci (standard wild type and methicillin-resistant strain USA300), Escherichia coli, Pseudomonas aeruginosa and Staphylococcus epidermidis.
(§4) Fungal strains were streaked on Yeast Peptone Dextrose (YPD) agar plates and incubated at 30° C. for 48 hours. A single colony from each strain to be tested was inoculated into YPD broth and grown for 12 hours at 30° C., shaking at 225 rpm. […] The cells were allowed to adhere to the plate for 90 minutes at 37° C. with shaking (350 rpm). […] The plate was further incubated for 24 hours at 37° C. with shaking (350 rpm). Media was carefully aspirated and the biofilm was measured by optical density at 600 nm. […] The cells were allowed to adhere to the plate for 90 minutes at 37° C. with shaking (350 rpm). […] The plate was further incubated for 24 hours at 37° C. with shaking (350 rpm). […] The plate was further incubated for 24 hours at 37° C. with shaking (350 rpm). Media was carefully aspirated, and the biofilm was measured by optical density at 600 nm.
(§5) Bacterial strains were streaked on Blood Agar plates (5% sheep blood in Tryptic Soy Broth) and incubated at 37° C. for 24 hours. A single colony from each strain to be tested was inoculated in a TSB broth and grown for 12 hours, at 37° C. with shaking (225 rpm). For the bacterial biofilm inhibition assays, 1 μL of saturated overnight cell culture was added to either 80 μL of TSB-G, or TSB-G supplemented with the amino acid compound solution to be tested, in a 384-well plate. The cells were allowed to adhere to the plate for 60 minutes at 37° C. without shaking. The media was carefully aspirated and 80 μL of TSB-G, or TSB-G supplemented with the amino acid compound solution was added to the plate. The plate was further incubated for 24 hours at 37° C. without shaking. Media was carefully aspirated and the biofilm was measured by optical density at 600 nm. Eight or twelve replicates were performed for each tested condition and the reported values are normalized to the control (TSB-G media only). For the bacterial biofilm disruption assays, 80 µL of TSB-G was added to the plate, along with 1 μL of overnight cell culture. The cells were allowed to adhere to the plate for 60 minutes at 37° C. with no shaking. The media was carefully aspirated and 80 μL of TSB-G was added to the plate. The plate was further incubated for 24 hours at 37° C. with no shaking. Media was carefully aspirated from the mature biofilm and 80 μL of TSB-G, or TSB-G supplemented with the amino acid to be tested, was gently added to the plate.

[3] = system: fungal biofilm (C. albicans); test: Fungal biofilm inhibition assay; assay type: cell-based, Candida albicans
Procedure: as §1, §2, §3, §4

[4] = system: bacterial (S. aureus) biofilm; test: Bacterial biofilm disruption assay; assay type: cell-based, Staphylococcus aureus
fungal biofilm = test: In vitro testing on fungal biofilm (inhibition and/or disruption); assay type: cell-based; conditions: in vitro testing
bacterial biofilm = test: In vitro testing on bacterial biofilm (inhibition and/or disruption); assay type: cell-based; conditions: in vitro testing
[5] = system: fungal biofilm (C. albicans); test: Fungal biofilm disruption assay; assay type: cell-based, Candida albicans
[6] = system: bacterial and fungal biofilm; test: In vitro testing on bacterial and fungal biofilm (assay not told apart); assay type: cell-based; conditions: for effect on bacterial and fungal biofilm (in words): in vitro testing
Procedure: as §1, §2, §3, §4, §5

[7] = system: bacterial (S. aureus) biofilm; test: Bacterial biofilm inhibition assay; assay type: cell-based, Staphylococcus aureus
[8] = Thermal degradation in hot aqueous solution; assay type: physicochemical; conditions: water at about 90 C. to 100 C.
[9] = in vivo
[10] = Table D, bacterial and fungal biofilm
[11] = Table F, in the presence of a sufficient concentration of glycerol

SMILES: N[C@@H](CCC(=O)O)C(=O)O [Glutamic Acid, L-glutamic acid]
Reduce Both (squares: Inhibition Biofilm Assay) [1, 10]: ▪▪ (Two squares [ie. ▪▪] signifies a major effect (greater than about 50%), on the Inhibition Biofilm Assay)
Reduce Both (squares: Inhibition Biofilm Assay) [1, 11]: ▪▪ (Two squares [ie. ▪▪] signifies a major effect (greater than about 50%), on the Inhibition Biofilm Assay)
Reduce Both (dots: Disruption Biofilm Assay) [2, 10]: ●● (Two dots [ie. ●●] signifies a major effect (greater than about 50%), on the Disruption Biofilm Assay)
Reduce Both (dots: Disruption Biofilm Assay) [2, 11]: ●● (Two dots [ie. ●●] signifies a major effect (greater than about 50%), on the Disruption Biofilm Assay)
Reduce or Inhibit F Biofilm (squares: Inhibition Biofilm Assay) ([3]; Table D, 0.1 to 5.0%): ▪▪ (Two squares [ie. ▪▪] signifies a major effect (greater than about 50%), on the Inhibition Biofilm Assay)
Reduce or Inhibit F Biofilm (squares: Inhibition Biofilm Assay) [3, 11]: ▪▪ (Two squares [ie. ▪▪] signifies a major effect (greater than about 50%), on the Inhibition Biofilm Assay)
Reduce or Inhibit B Biofilm (dots: Disruption Biofilm Assay) ([4]; Table D, 0.1 to 5.0%): ●● (Two dots [ie. ●●] signifies a major effect (greater than about 50%), on the Disruption Biofilm Assay)
Reduce or Inhibit B Biofilm (dots: Disruption Biofilm Assay) [4, 11]: ●● (Two dots [ie. ●●] signifies a major effect (greater than about 50%), on the Disruption Biofilm Assay)
effect on fungal biofilm (in words) (fungal biofilm): antifungal biofilm effects
effect on bacterial biofilm (in words) (bacterial biofilm): antibacterial biofilm effect
Reduce or Inhibit F Biofilm (dots: Disruption Biofilm Assay) ([5]; Table D, 0.1 to 5.0%): ●● (Two dots [ie. ●●] signifies a major effect (greater than about 50%), on the Disruption Biofilm Assay)
Reduce or Inhibit F Biofilm (dots: Disruption Biofilm Assay) [5, 11]: ●● (Two dots [ie. ●●] signifies a major effect (greater than about 50%), on the Disruption Biofilm Assay)
ideal concentration for antibiofilm effect ([6]; in the absence of glycerol on in vitro testing): 0.5 g %
effect on bacterial and fungal biofilm (in words) [6]: very active against both bacterial and fungal biofilm
effect on bacterial and fungal biofilm (in words) ([6]; listed as Glutamic acid): strong effect on biofilm-forming bacteria and fungi in reducing biofilm formation
concentration of maximum (ideal) antibiofilm effect ([6]; tested on its own, without glycerol): 0.5%
Reduce or Inhibit B Biofilm (squares: Inhibition Biofilm Assay) ([7]; Table D, 0.1 to 5.0%): ▪▪ (Two squares [ie. ▪▪] signifies a major effect (greater than about 50%), on the Inhibition Biofilm Assay)
Reduce or Inhibit B Biofilm (squares: Inhibition Biofilm Assay) [7, 11]: ▪▪ (Two squares [ie. ▪▪] signifies a major effect (greater than about 50%), on the Inhibition Biofilm Assay)

thermal stability in aqueous solution [8]: too susceptible to thermal degradation
SMILES: NC(=O)CC[C@H](N)C(=O)O [Glutamine, L-glutamine]
Neutral (square: Inhibition Biofilm Assay) ([1]; Table D, Neutral = no effect on the biofilm): ▪ (Single square [ie. ▪] signifies little effect on the Inhibition Biofilm Assay (from about 10 to less than 30%))
Neutral (square: Inhibition Biofilm Assay) ([1]; Table E, in the absence of an infusion of glycerol): ▪ (Single square [ie. ▪] signifies little effect on the Inhibition Biofilm Assay (from about 10 to less than 30%))
Neutral (square: Inhibition Biofilm Assay) [1, 11]: ▪ (Single square [ie. ▪] signifies little effect on the Inhibition Biofilm Assay (from about 10 to less than 30%))

SMILES: OCC(O)CO [glycerol]
effect on bacterial and fungal biofilm (in words) [6]: not found to have antibiofilm effect
toxicity of the glycerol infusion [9]: non-toxic to humans

Source: patent US12109176B1, “Effect of glycerol on biofilm forming bacteria and fungi that changes the microbes sensitivity to pro and anti-biofilm non-toxic, non-bonded plasma amino acids and amino acid derivatives” (priority 2023, dated 2024)
